# Test results as given in the Deep4Chem optical property database.
# “And” between values parts separate entries of the source, which are not always exact repeats. Equal entries are not always repeated.
# Experiment: solvent given as SMILES
compound,measurement,setting,value
c1ccc(-n2c(-c3c(-n4c5ccccc5c5ccccc54)cccc3-n3c4ccccc4c4ccccc43)nc3ccccc32)cc1,absorption maximum,in C1CCOC1,342 nm
CCCCC(CC)COc1ccc2nc(-c3ccc(-c4ccc(N(C)C)cc4)s3)sc2c1 (stereo unspecified),absorption maximum,in ClCCl,402 nm
O=C1c2ccc3c4ccc5c6c(ccc(c7ccc(c2c37)C(=O)N1c1ccncc1)c64)C(=O)N(c1ccncc1)C5=O,absorption maximum,in C1CCOC1,522 nm
same,absorption maximum,in C1COCCO1,525 nm
same,absorption maximum,in CC(C)=O,519 nm
same,absorption maximum,in CC(C)O,525 nm
same,absorption maximum,in CCCCO,525 nm
same,absorption maximum,in CCO,524 nm
same,absorption maximum,in CCOC(C)=O,519 nm
same,absorption maximum,in CN(C)C=O,524 nm
same,absorption maximum,in CO,525 nm
same,absorption maximum,in CS(C)=O,528 nm
same,absorption maximum,in ClC(Cl)(Cl)Cl,524 nm
same,absorption maximum,in ClC(Cl)Cl,530 nm
CC(=O)O[B-]1(OC(C)=O)OC(/C=C/c2ccc(C)cc2)=CC(/C=C/c2ccc(C)cc2)=[O+]1,absorption maximum,in C1CCOC1,434 nm
same,absorption maximum,in CC#N,434 nm
same,absorption maximum,in CC(C)=O,434 nm
same,absorption maximum,in CS(C)=O,442 nm
same,absorption maximum,in Cc1ccccc1,436 nm
same,absorption maximum,in ClC(Cl)Cl,440 nm
same,absorption maximum,in ClCCl,440 nm
N#Cc1ccc(N(c2ccc(C#N)cc2)c2ccc3c4cccc5c(N(c6ccc(C#N)cc6)c6ccc(C#N)cc6)ccc(c6cccc2c63)c54)cc1,absorption maximum,in C1CCCCC1,446 nm
same,absorption maximum,in C1CCOC1,452 nm
same,absorption maximum,in CC#N,446 nm
same,absorption maximum,in Cc1ccccc1,451 nm
same,absorption maximum,in ClCCl,450 nm
CN(C)CCNCc1c2ccccc2cc2ccccc12,absorption maximum,in C1CCCCC1,368 nm
same,absorption maximum,in C1CCOC1,366 nm
same,absorption maximum,in CC#N,365 nm
same,absorption maximum,in CC(C)=O,365 nm
same,absorption maximum,in CCO,366 nm
same,absorption maximum,in CN(C)C=O,363 nm
same,absorption maximum,in CO,364 nm
same,absorption maximum,in ClC(Cl)Cl,367 nm
CC1=[N+]2C(=C(c3ccc(C#N)cc3)c3ccc(C)n3[B-]2(F)F)C=C1,absorption maximum,in C1CCCCC1,517 nm
same,absorption maximum,in C1CCOC1,516 nm
same,absorption maximum,in CC#N,512 nm
same,absorption maximum,in CCOC(C)=O,513 nm
same,absorption maximum,in CO,513 nm
same,absorption maximum,in Cc1ccccc1,519 nm
same,absorption maximum,in ClC(Cl)Cl,519 nm
CCCCCCCCCCC1(CCCCCCCCCC)c2cc(-c3nc4ccccc4s3)ccc2-c2ccc(N3C(=O)c4ccc5c6ccc7c8c(ccc(c9ccc(c4c59)C3=O)c86)C(=O)N(c3ccc4c(c3)C(CCCCCCCCCC)(CCCCCCCCCC)c3cc(-c5nc6ccccc6s5)ccc3-4)C7=O)cc21,absorption maximum,in ClCCl,528 nm
CN(C)c1ccc2nc(-c3ccccc3)sc2c1,absorption maximum,in C1CCCCC1,357 nm
same,absorption maximum,in CC#N,362 nm
same,absorption maximum,in CC(C)O,361 nm
same,absorption maximum,in CO,363 nm
same,absorption maximum,in CS(C)=O,369 nm
same,absorption maximum,in ClC(Cl)Cl,362 nm
same,absorption maximum,in c1ccccc1,364 nm
CC(C)(C)c1ccc(-c2ccc(-c3ccc(N(c4ccccc4)c4ccccc4)cc3)c3nsnc23)cc1,absorption maximum,in ClCCl,436 nm
COCCC1=Cc2nc1ccc1[nH]c(cc1CCOC)c1nc(c(NC(C)=O)cc3[nH]c2cc3CCOC)C(CCOC)=C1,absorption maximum,in Cc1ccccc1,670 nm
c1csc(-c2ccc(-c3cccs3)s2)c1,absorption maximum,in CC#N,351 nm
same,absorption maximum,in ClCCl,355 nm
F[B-]1(F)n2c(c3ccccc3c2-c2ccccc2)C(c2ccccc2)=C2c3ccccc3C(c3ccccc3)=[N+]21,absorption maximum,in ClCCl,631 nm
Cc1ccc(OCc2cc(=O)oc3c2ccc2ccccc23)cc1,absorption maximum,in C1CCOC1,352 nm
same,absorption maximum,in C1COCCO1,352 nm
same,absorption maximum,in CCOC(C)=O,351 nm
same,absorption maximum,in CO,352 nm
same,absorption maximum,in Cc1ccccc1,354 nm
same,absorption maximum,in ClCCl,354 nm
CC(C)(C)c1ccc(N(c2ccc(C(C)(C)C)cc2)c2cc(N(c3ccc(C(C)(C)C)cc3)c3ccc(C(C)(C)C)cc3)c3ccc4cc(C(C)(C)C)cc5ccc2c3c54)cc1,absorption maximum,in ClCCl,425 nm
COc1cc(OC)cc(C2=C3C(C)=C(I)C(C)=[N+]3[B-](F)(F)n3c(/C=C/c4c[nH]c5ccc([N+](=O)[O-])cc45)c(I)c(C)c32)c1,absorption maximum,in C1CCOC1,612 nm
same,absorption maximum,in CS(C)=O,622 nm
same,absorption maximum,in ClCCl,606 nm
c1cc2c3c(c1)-c1ccc4c5c(ccc(c15)B3c1ccc3c5c(ccc-2c15)CC3)CC4,absorption maximum,in Cc1ccccc1,495 nm
CCCCc1c2c(nc3ccccc13)-c1cc3c(cc1CC2)-c1nc2ccccc2c(CCCC)c1CC3,absorption maximum,in ClC(Cl)Cl,372 nm
CN(C)c1ccc(-c2ccc(-c3cc(-c4ccccc4)c(-c4ccccc4)c(-c4ccccc4)c3-c3ccccc3)nc2)cc1,absorption maximum,in ClC(Cl)Cl,332 nm
CCCCCCCCCCCn1cccc1C1=[N+]2C(=Cc3c(C)cc(C)n3[B-]2(F)F)c2ccccc21,absorption maximum,in C1CCOC1,584 nm
same,absorption maximum,in CC#N,577 nm
same,absorption maximum,in CCCCCC,583 nm
same,absorption maximum,in CO,579 nm
same,absorption maximum,in Cc1ccccc1,590 nm
same,absorption maximum,in ClCCl,584 nm
Cc1ccc2c(c1)C1(c3ccccc3-c3ccccc31)c1cc(C)ccc1N2c1ccc2c(c1)Oc1ccccc1P2(=O)c1ccccc1 (stereo unspecified),absorption maximum,in Cc1ccccc1,311.25 nm
COc1ccc(-c2cnc(-c3ccccc3)o2)cc1OC,absorption maximum,in ClCCl,322 nm
CCN(CC)c1ccc2cc(-c3cn4ccccc4n3)c(=O)oc2c1,absorption maximum,in C1CCOC1,408 nm
same,absorption maximum,in CC#N,421 nm
same,absorption maximum,in CCO,424 nm
same,absorption maximum,in CCOC(C)=O,407 nm
same,absorption maximum,in CN(C)C=O,425 nm
same,absorption maximum,in CO,423 nm
same,absorption maximum,in CS(C)=O,428 nm
same,absorption maximum,in Cc1ccccc1,407 nm
same,absorption maximum,in ClC(Cl)Cl,425 nm
same,absorption maximum,in ClCCl,429 nm
COC(=O)C[C@H](Cc1c[nH]c2ccccc12)NC(=O)[C@H](CC(=O)N[C@@H](CC1=CCc2ccccc21)C(=O)OC)NC(=O)[C@H](Cc1c[nH]c2ccccc12)NC(=O)OC(C)(C)C,absorption maximum,in CC#N,280 nm
same,absorption maximum,in CCOC(C)=O,280 nm
same,absorption maximum,in CO,280 nm
Cc1cc(C)c(C2=C3C=C(c4ccc(C(C)(C)C)cc4)C(c4ccc(C(C)(C)C)cc4)=[N+]3[B-](F)(F)n3c2cc(-c2ccc(C(C)(C)C)cc2)c3-c2ccc(C(C)(C)C)cc2)c(C)c1,absorption maximum,in C1CCCCC1,602 nm
same,absorption maximum,in C1CCOC1,602 nm
same,absorption maximum,in CC#N,592 nm
same,absorption maximum,in Cc1ccccc1,606 nm
same,absorption maximum,in ClCCl,599 nm
C(#Cc1cccc2cc(-c3ccccc3)c3cc(-c4cc[b-]5c(c4)c(-c4ccccc4)cc4cccc(C#Cc6ccccc6)[n+]54)cc[b-]3[n+]12)c1ccccc1,absorption maximum,in C1CCCCC1,546 nm
N#Cc1ccc2c(c1)CCc1nc(-c3ccc([N+](=O)[O-])cc3)c3c(c1-2)CCc1cc(C#N)ccc1-3,absorption maximum,in C1CCOC1,331 nm
same,absorption maximum,in CC#N,349 nm
same,absorption maximum,in CCCCCC,350 nm
same,absorption maximum,in CCOC(C)=O,329 nm
same,absorption maximum,in CO,333 nm
same,absorption maximum,in CS(C)=O,360 nm
same,absorption maximum,in Cc1ccccc1,343 nm
same,absorption maximum,in ClCCl,345 nm
CCCCCCCCOc1ccc(C2=C3C(C)=CC(C)=[N+]3[B-](F)(F)n3c(C)cc(C)c32)cc1,absorption maximum,in ClCCl,500 nm
CCN(CC)c1ccc(/N=N/c2cc3c(=O)[nH][nH]c(=O)c3cc2[N+](=O)[O-])c(NC(C)=O)c1,absorption maximum,in CC(=O)O,532 nm
same,absorption maximum,in CN(C)C=O,518 nm
same,absorption maximum,in CS(C)=O,519 nm
Cc1c(C2=[N+]3C(=Cc4c(C)c5ccccc5n4[B-]3(F)F)c3ccccc32)[nH]c2ccccc12,absorption maximum,in C1CCOC1,608 nm
same,absorption maximum,in CC#N,591 nm
same,absorption maximum,in CCCCCC,623 nm
same,absorption maximum,in CO,598 nm
same,absorption maximum,in Cc1ccccc1,625 nm
same,absorption maximum,in ClCCl,611 nm
Cc1cc(C)c(C)c(B(c2c(C)c(C)cc(C)c2C)c2c(C)c(C)c(N3c4ccccc4Oc4ccccc43)c(C)c2C)c1C,absorption maximum,in CC(C)(C)c1ccc(-n2c3ccc([Si](c4ccccc4)(c4ccccc4)c4ccccc4)cc3c3cc([Si](c4ccccc4)(c4ccccc4)c4ccccc4)ccc32)cc1,373 nm
CN(C)c1ccc2c(C(=O)NCc3ccccc3)cc(C(=O)[O-])nc2c1,absorption maximum,in CCO,403 nm
C[Si]1(C)O[Si](C)(C)c2cc3c(-c4ccccc4)c4ccccc4nc3cc21,absorption maximum,in ClCCl,368 nm
CCN1CCN(c2ccc(/N=N/c3ccc(C(=O)OC)cc3)cc2)CC1,absorption maximum,in CCOC(C)=O,419 nm
COc1ccc(C#Cc2c3ccccc3c(C#Cc3ccc(OC)cc3)c3cc4ccccc4cc23)cc1,absorption maximum,in ClCCl,559 nm
CCN(CC)c1ccc2c(C)cc(=O)oc2c1,absorption maximum,in C1CCCCC1,350 nm
same,absorption maximum,in CC#N,367 nm
same,absorption maximum,in CCCCCCCCO,373 nm
same,absorption maximum,in CCCCCCO,373 nm
same,absorption maximum,in CCCCO,374 nm
same,absorption maximum,in CCCO,376 nm
same,absorption maximum,in CCO,376 nm and 435 nm and 373 nm
same,absorption maximum,in CCOC(C)=O,361 nm
same,absorption maximum,in OCC(O)CO,384 nm
Cc1cc(C)c(B(c2ccc(-c3nc4c5ccccc5c5ccccc5c4[nH]3)cc2)c2c(C)cc(C)cc2C)c(C)c1,absorption maximum,in C1CCOC1,384 nm
same,absorption maximum,in CC(C)=O,380 nm
same,absorption maximum,in CS(C)=O,386 nm
same,absorption maximum,in Cc1ccccc1,381 nm
same,absorption maximum,in ClCCl,376 nm
CCCCN1C(=O)c2ccc3c4c(Br)cc5c6c(ccc(c7c(Br)cc(c2c37)C1=O)c64)C(=O)N(CCCC)C5=O,absorption maximum,in ClC(Cl)Cl,524 nm
CC[n+]1c(-c2ccccc2)c2cc(N)ccc2c2ccc(N)cc21,absorption maximum,in O,480 nm
CCCCc1cc2cccc[n+]2[b-]2c(-c3cccc4[b-]3[n+]3ccccc3cc4CCCC)cccc21,absorption maximum,in C1CCCCC1,446 nm
F[B-]1(F)OC(c2ccccc2)=Cc2c3ccccc3cc[n+]21,absorption maximum,in ClC(Cl)Cl,400 nm
CCCCNc1nn(-c2ccc(OC)cc2)nc1C#N,absorption maximum,in CC#N,328 nm
COc1ccc(/C=C/c2cc(/C=C/c3ccc(N(c4ccccc4)c4ccccc4)cc3)nc(/C=C/c3ccc(N(C)C)cc3)n2)cc1,absorption maximum,in ClCCl,386 nm
COc1ccc2cc(-c3ccccc3CC#N)c(=O)oc2c1,absorption maximum,in ClC(Cl)Cl,336 nm
CCOC(=O)c1cc(C(=O)OCC)c2cc(N(C)C)ccc2n1,absorption maximum,in CCO,443 nm
Nc1ccc2c(c1)NC(=O)CC(=O)N2,absorption maximum,in CS(C)=O,318 nm
CC1=CC(/C=C/c2ccc3ccc4cccc5ccc2c3c45)=[N+]2C1=C(c1ccccc1)c1c(C)cc(/C=C/c3ccc4ccc5cccc6ccc3c4c56)n1[B-]2(F)F,absorption maximum,in CC1CCCO1,691 nm
